The text below walks through data of patent US20240101584A1, “TARGETED DELIVERY OF 1,2,4,5 TETRAOXANE COMPOUNDS AND THEIR USES” (Westlake University, priority 2021, published 2024).

The subject of assay [1] is MDA-MB-231 cells. The assay can be described thus: MTT viability assay, MDA-MB-231 cells. It counts as cell-based. Conditions: MTT, 48 h incubation, mean, n = 3; read-out: IC50 against MDA-MB-231 cells. The method, then:
(§1) The anticancer activities of the exemplary compounds listed in Example 1 were tested against human cervix Hela cells, mammary breast cancer MDA-MB-231 cells, human hepatocellular HepG2 cells, human colorectal HCT116 cells, mammary ductal T47D cells, non-cancerous NIH3T3 cells, dog's kidney MDCK cells, and mouse brain bEnd.3 cells, respectively.

Another assay deals with NIH3T3 cells. The assay can be described thus: MTT viability assay, non-cancerous NIH3T3 cells. Format: cell-based. As to the method:
as §1

The test system of the next assay is HeyA8 cells. Description: CellTiter-Glo viability, adherent HeyA8 ovarian cancer cells. Conditions: 5 μM. It counts as cell-based. (Cellular ATP, detected with luciferase, serves as a proxy for viable cell number.)
Assay [2] has as its system lipid ROS in MDA-MB-231 cells. Description: C11-BODIPY lipid ROS detection in MDA-MB-231 cells. It counts as cell-based. To be noted: 48 5 μM, 37b 1 μM, RSL3 0.5 μM; 6 h incubation. As to the method:
FIG. 11 is a bar graph showing the detection of lipid ROS with compound 48 (5 μM), compound 37b (1 μM), or RSL3 (0.5 μM) by BODIPY 581/591 C11 after 6 h incubation in MDA-MB-231 cells. **P≤0.01 versus DMSO group. Data are plotted as the mean±SD, n=3 biologically independent samples. All P values were determined using two-tailed Student's t-test.
Since lipid peroxidation is the evidence about ferroptosis, C11-BODIPY probe is used to validate the lipid ROS generated by tetraoxanes. It is a ratiometric membrane-targeted probe which changes the emission from 590 nm to 510 nm upon the detection of lipid ROS. Here, MDA-MB-231 cells were treated with 48, 37b and RSL3, respectively. The lipid ROS levels were quantified by flow cytometry. Untreated group gave weak signal in FL1 channel (FIG. 11).

Another assay has as its system HCT116 cells. To be noted: reported data of known compounds; cited from earlier work.
Another assay concerns HL-60 cells. Conditions: cited from earlier work; for IC50: reported data of known compounds.
The subject of assay [3] is MDA-MB-231 cells. Conditions: reported data of known compounds; cited from earlier work.
In the next assay the test system is HepG2 cells. Conditions: reported compound in the literature; read-out: overall IC50, HepG2 cells, reported compound; cited from earlier work.
The subject of a further assay is PMBC. To be noted: reported compound in the literature; cited from earlier work.
In the next assay the test system is HEK293 cells. To be noted: reported compound in the literature; read-out: overall IC50, HEK293 cells, reported compound; cited from earlier work.
The next assay deals with Hela cells. To be noted: reported compound in the literature; read-out: overall IC50, Hela cells, reported compound; cited from earlier work.

Where two headings read alike, the source gives them in different places. A value given as a limit tells only on which side of the number the result lay.

One may read the IC50 as the concentration at which inhibition is half-maximal. Consider `COC(=O)c1ccc([C@@H]2c3[nH]c4ccccc4c3C[C@@H](C(=O)OC)N2C(=O)CCl)cc1` [RSL3, reference compound], for which the IC50 in the assay with MDA-MB-231 cells [1] amounted to 0.041 µM; with NIH3T3 cells (MTT, 48 h incubation, mean, n = 3, read-out: IC50 against NIH3T3 cells), 0.028 µM; in the assay on NIH3T3 cells (text b507, read-out: IC50 on NIH3T3 cells), 0.0283 ± 0.0086 µM. The “selectivity between non-cancerous cells and cancer cells” value with NIH3T3 cells is “more cytotoxic to non-cancerous cells than cancer cells”. For the same compound, the “elimination of adherent HEYA8 cells” value with HeyA8 cells was “eliminate the majority of adherent HEYA8 cells”. The “lipid ROS (BODIPY 581/591 C11, FL1, flow cytometry)” value in [2] is given as “fluorescence enhancement in FL1 was observed”.

`CC(C)(N)CNC(=O)C[C@H]1CC[C@]2(CC1)OO[C@]1(O2)C2CC3CC(C2)CC1C3` [OZ277]: the IC50 in the assay with HCT116 cells was 68.3 µM; in the assay on HL-60 cells it was 53.8 µM; in the assay with MDA-MB-231 cells [3], 35.2 µM.

Turning to `CN1CCN(C2CCN(C(=O)CC3CCC4(CC3)OOC3(OO4)C4CC5CC(C4)CC3C5)CC2)CC1` (stereo not drawn) [RKA182], in the assay with HL-60 cells (reported compound in the literature), the “best selectivity index (PMBC versus HL-60)” value is given as 4. In addition, the IC50 with HL-60 cells was 11.6 ± 0.4 µM; in the assay with HepG2 cells it was above 12 µM; in the assay on PMBC, 46.6 ± 0.7 µM; with HEK293 cells, above 12 µM; in the assay on Hela cells, above 12 µM.
